# Source: patent publication US20060167110A1 (priority 1995, published 2006)
# Several values for one entry are separate records, joined by “and”; a condition that tells them apart may be missing. Identical values can stand only once.
# Experiments:
# [1] = test system: cerebral infarction; settings: given orally; patients with subarachnoid hemorrhage and cerebral vasospasm; cited from earlier work
# [2] = test system: rat embryonic mesencephalic cells; experiment: [3H]dopamine uptake, medium change (glutamate receptor dependent) model of cell death
# Method: Preparations are then added to 10 ml Ecoscint (National Diagnostics) and counted in a scintillation spectrometer.
# (§3) In these experiments, cells were plated and allowed to stabilize for several days.
# [3] = biological target: T1, MAO-A (Cavia porcellus, UniProt H0UVA2); experiment: MAO-A inhibition in guinea pig hippocampal homogenates in vitro; format: biochemical; design: specific substrates of MAO-A (^14C-serotonin) in guinea pig hippocampal homogenates; from tissue; host or cells: guinea pig hippocampal homogenates; settings: for reduction in potency compared to selegiline, MAO-A: figure in parentheses, times less potent
# T1 sequence (H0UVA2 1-461): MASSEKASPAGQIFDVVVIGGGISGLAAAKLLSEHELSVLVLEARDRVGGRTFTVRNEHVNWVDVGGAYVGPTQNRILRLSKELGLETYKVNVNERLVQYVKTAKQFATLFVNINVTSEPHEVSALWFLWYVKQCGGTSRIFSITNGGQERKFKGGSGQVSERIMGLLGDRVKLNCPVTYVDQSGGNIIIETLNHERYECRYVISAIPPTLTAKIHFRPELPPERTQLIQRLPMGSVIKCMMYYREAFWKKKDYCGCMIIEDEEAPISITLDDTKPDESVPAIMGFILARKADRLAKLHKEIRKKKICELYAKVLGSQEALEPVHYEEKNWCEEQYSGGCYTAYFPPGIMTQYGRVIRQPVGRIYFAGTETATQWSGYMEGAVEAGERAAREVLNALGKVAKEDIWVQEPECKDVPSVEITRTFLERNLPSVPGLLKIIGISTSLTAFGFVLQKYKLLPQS
# Text: (§1) Human platelet MAO is comprised exclusively of the type-B isoform of the enzyme. […] The present study also examined the two enantiomers of DMS for inhibitory activity with respect to the MAO-A and MAO-B in guinea pig hippocampal tissue. Guinea pig brain tissue is an excellent animal model for studying brain dopamine metabolism, the enzyme kinetics of the multiple forms of MAO and the inhibitory properties of novel agents that interact with these enzymes. The multiple forms of MAO in this animal species show similar kinetic properties to those found in human brain tissue. Finally, the test agents were administered to guinea pigs and the extent to which they might act as inhibitors of brain MAO in vivo was assessed.
# (§2) In vitro: The test system utilized the in vitro conversion of specific substrates of MAO-A (^14C-serotonin) in guinea pig hippocampal homogenates or MAO-B (^14C-phenylethylamine) by human platelets and guinea pig hippocampal homogenates. […] A percent inhibition was calculated from these values.
# [4] = test system: rat embryonic mesencephalic cells; experiment: TH positive cell survival, medium change (glutamate receptor dependent) model of cell death
# Method: as §3
# [5] = biological target: T2, MAO-B (Cavia porcellus, UniProt P58028); experiment: MAO-B inhibition in guinea pig hippocampal homogenates in vitro; format: biochemical; settings: for IC50: IC50 Values for the Inhibition of MAO-B, Guinea Pig Hippocampal Cortex; for reduction in potency compared to selegiline, MAO-B, Guinea Pig Hippocampal Cortex: figure in parentheses
# T2 construct: MAO-B (^14C-phenylethylamine) by human platelets and guinea pig hippocampal homogenates; from tissue; host or cells: guinea pig hippocampal homogenates
# T2 sequence (P58028 1-520): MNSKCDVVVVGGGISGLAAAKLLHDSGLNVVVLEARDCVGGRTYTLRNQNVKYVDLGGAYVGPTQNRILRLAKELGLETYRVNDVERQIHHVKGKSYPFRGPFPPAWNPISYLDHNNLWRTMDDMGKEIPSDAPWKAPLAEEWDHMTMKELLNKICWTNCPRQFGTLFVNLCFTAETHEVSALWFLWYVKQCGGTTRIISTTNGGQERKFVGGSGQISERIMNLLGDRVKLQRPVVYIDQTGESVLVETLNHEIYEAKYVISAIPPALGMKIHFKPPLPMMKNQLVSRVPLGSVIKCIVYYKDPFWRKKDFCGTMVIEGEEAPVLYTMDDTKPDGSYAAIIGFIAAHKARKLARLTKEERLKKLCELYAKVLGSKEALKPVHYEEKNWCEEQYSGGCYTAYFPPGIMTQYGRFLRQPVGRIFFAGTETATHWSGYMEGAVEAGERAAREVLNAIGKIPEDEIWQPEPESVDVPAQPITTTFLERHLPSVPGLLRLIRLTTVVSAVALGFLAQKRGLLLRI
# Text: as §1, §2
# [6] = test system: cultured rat mesencephalic cells; experiment: TH immunochemistry after 100 μM NMDA exposure
# Method: Rat mesencephalic cell cultures were exposed to 100 μM NMDA and incubated as described above in connection with FIG. 16.
# [7] = biological target: T2, MAO-B; experiment: In vivo brain MAO-B inhibition in guinea pig hippocampus after 5 daily s.c. doses; settings: preliminary studies
# Method: FIG. 20: In vivo MAO-B Inhibition in Guinea Pig Hippocampus. […] Animals were then sacrificed and the MAO-B activity in the hippocampus portion of the brain was determined. […] The plots were used to estimate the ID50 dosage for each agent.
# Each enantiomer of DMS was administered in vivo by subcutaneous injection once a day for five consecutive days, and inhibition of brain MAO-B activity was then determined.
# [8] = biological target: T3, dopamine uptake system (Rattus norvegicus, UniProt P23977); experiment: Inhibition of tritiated dopamine uptake in rat neostriatal nerve-terminal (synaptosome) preparation; format: biochemical
# T3 construct: An in vitro nerve-terminal preparation (symptosome-preparation) was obtained from fresh rat neostriatal brain tissue; from tissue; host or cells: rat neostriatal synaptosomes
# Method: An in vitro nerve terminal preparation (synaptosome preparation) was prepared using fresh rat neostriatal tissue.
# Transport by dopamine nerve-terminals was estimated by measuring the uptake of tritiated dopamine.
# [9] = biological target: T4, MAO-A (Rattus norvegicus, UniProt P21396); experiment: MAO-A inhibition in rat brain tissue; format: biochemical; design: from tissue; host or cells: rat cortex mitochondrial-rich fractions
# T4 sequence (P21396 1-526): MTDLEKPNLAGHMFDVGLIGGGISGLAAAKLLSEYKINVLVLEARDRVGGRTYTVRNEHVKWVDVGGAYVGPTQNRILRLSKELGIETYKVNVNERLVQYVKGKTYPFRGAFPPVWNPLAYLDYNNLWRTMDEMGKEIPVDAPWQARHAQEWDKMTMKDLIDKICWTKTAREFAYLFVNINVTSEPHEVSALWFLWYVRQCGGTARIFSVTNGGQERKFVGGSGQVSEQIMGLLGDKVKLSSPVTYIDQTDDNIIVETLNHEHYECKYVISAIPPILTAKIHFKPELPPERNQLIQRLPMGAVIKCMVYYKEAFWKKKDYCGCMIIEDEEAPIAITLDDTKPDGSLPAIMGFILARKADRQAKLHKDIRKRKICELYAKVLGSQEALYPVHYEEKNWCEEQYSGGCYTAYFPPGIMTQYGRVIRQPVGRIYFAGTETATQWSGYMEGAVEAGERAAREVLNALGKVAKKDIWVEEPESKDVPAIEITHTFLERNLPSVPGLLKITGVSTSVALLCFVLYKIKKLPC
# [10] = biological target: T1, MAO-A; experiment: In vivo MAO-A inhibition in guinea pig cortex (hippocampus) after 5 s.c. treatments; settings: sc, read-out: inhibition of MAO-A activity
# Method: Hippocampal homogenates containing enzyme were prepared, and assays in vitro for MAO-A and MAO-B activity.
# T3 sequence (P23977 whole entry): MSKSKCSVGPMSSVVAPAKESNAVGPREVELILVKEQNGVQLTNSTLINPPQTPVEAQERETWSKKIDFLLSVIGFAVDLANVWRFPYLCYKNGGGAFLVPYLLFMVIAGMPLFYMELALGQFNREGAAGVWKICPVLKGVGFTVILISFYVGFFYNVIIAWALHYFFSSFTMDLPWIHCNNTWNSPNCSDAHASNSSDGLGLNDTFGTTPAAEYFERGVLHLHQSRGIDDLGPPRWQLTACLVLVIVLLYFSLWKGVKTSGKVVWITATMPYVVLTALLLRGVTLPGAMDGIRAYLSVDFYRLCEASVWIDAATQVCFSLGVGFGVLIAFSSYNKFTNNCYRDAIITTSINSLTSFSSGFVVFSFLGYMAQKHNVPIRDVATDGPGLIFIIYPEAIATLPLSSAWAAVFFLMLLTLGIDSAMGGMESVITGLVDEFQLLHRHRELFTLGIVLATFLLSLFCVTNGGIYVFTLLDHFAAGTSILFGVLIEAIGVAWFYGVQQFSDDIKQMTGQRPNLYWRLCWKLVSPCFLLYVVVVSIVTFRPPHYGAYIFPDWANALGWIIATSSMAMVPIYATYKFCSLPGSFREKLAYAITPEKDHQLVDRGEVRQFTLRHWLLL
smiles,measurement,setting,value
COCCOC(=O)C1=C(C)NC(C)=C(C(=O)OC(C)C)C1c1cccc([N+](=O)[O-])c1 (stereo not shown) [Nimodipine],incidence of cerebral infarction,[1],lower by one third
"C#CCN(C)Cc1ccccc1 [Pargyline, pargyline, reference compound]",neuron protection by measurement of dopamine uptake (FIG. 15),"[2]; at the concentrations used (0.5, 5 and 50 μM)",did not appear to offer any protection
"C#CCN(C)CCCOc1ccc(Cl)cc1Cl [clorgyline, reference compound]",neuron protection by measurement of dopamine uptake (FIG. 15),[2]; 50 μM,protected
"C[C@]12N[C@H](Cc3ccccc31)c1ccccc12 [MK-801, reference compound]",neuron protection by measurement of dopamine uptake (FIG. 15),[2]; 10 μM,protection was also obtained
"C#CCNC(C)Cc1ccccc1 (single isomer, unassigned) [S(+)DMS, S(+)-desmethylselegiline]",MAO-A % Reduction 0 ± SEM,[3]; Concentration 1 nM,92.7 ± 2.5%
same,MAO-A % Reduction 0 ± SEM,[3]; Concentration 10 nM,99.6 ± 0.35%
same,MAO-A % Reduction 0 ± SEM,[3]; Concentration 1 μM,3.3 + 1.5%
same,MAO-A % Reduction 0 ± SEM,[3]; Concentration 3 μM,4.3 ± 1.0%
same,MAO-A % Reduction 0 ± SEM,[3]; Concentration 10 μM,10.5 ± 1.47%
same,MAO-A % Reduction 0 ± SEM,[3]; Concentration 100 μM,48.4 ± 1.8%
same,"reduction in potency compared to selegiline, MAO-A",[3],40
same,"TH positive cells, % control","[4]; 0.5 μM, Mean",143.5 % control
same,"TH positive cells, cells/cm^2","[4]; 0.5 μM, Mean",403.1 cells/cm^2
same,"TH positive cells, % control","[4]; 0.5 μM, single sample",152.7 % control and 125.2 % control
same,"TH positive cells, cells/cm^2","[4]; 0.5 μM, single sample",402.5 cells/cm^2 and 330.0 cells/cm^2 and 477.5 cells/cm^2
same,"TH positive cells, % control","[4]; 5.0 μM, Mean",130.6 % control
same,"TH positive cells, cells/cm^2","[4]; 5.0 μM, Mean",344.4 cells/cm^2
same,"TH positive cells, % control","[4]; 5.0 μM, single sample",129.9 % control and 135.6 % control and 123.3 % control and 133.7 % control
same,"TH positive cells, cells/cm^2","[4]; 5.0 μM, single sample",342.5 cells/cm^2 and 357.5 cells/cm^2 and 325.0 cells/cm^2 and 352.5 cells/cm^2
same,"TH positive cells, % control","[4]; 50 μM, Mean",109.8 % control
same,"TH positive cells, cells/cm^2","[4]; 50 μM, Mean",289.4 cells/cm^2
same,"TH positive cells, % control","[4]; 50 μM, single sample",116.6 % control and 94.8 % control and 118.5 % control and 109.1 % control
same,"TH positive cells, cells/cm^2","[4]; 50 μM, single sample",307.5 cells/cm^2 and 250.0 cells/cm^2 and 312.5 cells/cm^2 and 287.5 cells/cm^2
same,IC50,[5],1.2 µM
same,"reduction in potency compared to selegiline, MAO-B, Guinea Pig Hippocampal Cortex",[5],1200 nM (1200)
same,inhibition at 0.3 µM,"[5]; read-out: MAO-B % Inhibition 0 ± SEM, Concentration 300 nM",18.7 ± 2.1%
same,inhibition at 3 µM,"[5]; read-out: MAO-B % Inhibition 0 ± SEM, Concentration 3 μM",77.1 ± 6%
same,"TH positive cells, % control","[6]; 0.5 μM, Mean",182.3 % control
same,"TH positive cells, cells/cm^2","[6]; 0.5 μM, Mean",171.67 cells/cm^2
same,"TH positive cells, % control","[6]; 0.5 μM, single sample",135.4 % control and 223.0 % control and 188.5 % control
same,"TH positive cells, cells/cm^2","[6]; 0.5 μM, single sample",127.5 cells/cm^2 and 210 cells/cm^2 and 177.5 cells/cm^2
same,"TH positive cells, % control","[6]; 5.0 μM, Mean",197.8 % control
same,"TH positive cells, cells/cm^2","[6]; 5.0 μM, Mean",186.25 cells/cm^2
same,"TH positive cells, % control","[6]; 5.0 μM, single sample",204.4 % control and 199.1 % control and 183.2 % control
same,"TH positive cells, cells/cm^2","[6]; 5.0 μM, single sample",192.5 cells/cm^2 and 187.5 cells/cm^2 and 172.5 cells/cm^2
same,"TH positive cells, % control","[6]; 50 μM, Mean",276.1 % control
same,"TH positive cells, cells/cm^2","[6]; 50 μM, Mean",260 cells/cm^2
same,"TH positive cells, % control","[6]; 50 μM, single sample",315.9 % control and 215.0 % control and 337.2 % control and 236.3 % control
same,"TH positive cells, cells/cm^2","[6]; 50 μM, single sample",297.5 cells/cm^2 and 202.5 cells/cm^2 and 317.5 cells/cm^2 and 222.5 cells/cm^2
same,"times less potent than selegiline, brain MAO-B in vivo",[7],about 10 times
same,times more potent than either selegiline or R(−)DMS in inhibiting dopamine uptake,[8],4-5 times
same,"Dopamine uptake, % control","[2]; 0.5 μM, Mean",167.2 % control
same,"Dopamine uptake, counts/min","[2]; 0.5 μM, Mean",35115.5 counts/min
same,"Dopamine uptake, % control","[2]; 0.5 μM, single sample",170.6 % control and 152.8 % control and 157.4 % control and 188.2 % control
same,"Dopamine uptake, counts/min","[2]; 0.5 μM, single sample",35830 counts/min and 32074 counts/min and 33042 counts/min and 39516 counts/min
same,"Dopamine uptake, % control","[2]; 5.0 μM, Mean",180.5 % control
same,"Dopamine uptake, counts/min","[2]; 5.0 μM, Mean",37889.75 counts/min
same,"Dopamine uptake, % control","[2]; 5.0 μM, single sample",171.3 % control and 173.7 % control and 181.7 % control and 195.1 % control
same,"Dopamine uptake, counts/min","[2]; 5.0 μM, single sample",35976 counts/min and 36476 counts/min and 38143 counts/min and 40964 counts/min
same,"Dopamine uptake, % control","[2]; 50 μM, Mean",157.3 % control
same,"Dopamine uptake, counts/min","[2]; 50 μM, Mean",33016.75 counts/min
same,"Dopamine uptake, % control","[2]; 50 μM, single sample",123.8 % control and 177.7 % control and 146.3 % control and 181.1 % control
same,"Dopamine uptake, counts/min","[2]; 50 μM, single sample",26002 counts/min and 37320 counts/min and 30725 counts/min and 38020 counts/min
"C#CCNC(C)Cc1ccccc1 (single isomer, unassigned) [R(−)DMS, R(−)-desmethylselegiline]",IC50,[9],70 µM
same,times less potent than selegiline in inhibiting MAO-A,"[9]; in vitro, rat brain tissue",approximately 39 times
same,IC50,[3],50 µM
same,MAO-A % Reduction 0 ± SEM,[3]; Concentration 300 nM,4.8 ± 2.1%
same,MAO-A % Reduction 0 ± SEM,[3]; Concentration 1 μM,4.2 ± 1.5%
same,MAO-A % Reduction 0 ± SEM,[3]; Concentration 3 μM,10.5 ± 2.0%
same,MAO-A % Reduction 0 ± SEM,[3]; Concentration 10 μM,19.0 ± 1.3%
same,MAO-A % Reduction 0 ± SEM,[3]; Concentration 100 μM,64.2 ± 1.5%
same,MAO-A % Reduction 0 ± SEM,[3]; Concentration 1 mM,96.5 + 1.2%
same,"reduction in potency compared to selegiline, MAO-A",[3],20
same,inhibition at 3 mg/kg,[10],29.8%
same,IC50,[5],0.06 µM
same,"reduction in potency compared to selegiline, MAO-B, Guinea Pig Hippocampal Cortex",[5],60 nM (60)
same,"times less potent than selegiline, brain MAO-B in vivo",[7],about 10 times
same,neuron protection by measurement of dopamine uptake (FIG. 15),[2]; 5 μM,neuron protection
same,more axonal growth and terminal axonal survival compared to untreated control cells,"[2]; 10 μM, medium change model",40%
same,neuron protection by measurement of dopamine uptake (FIG. 15),[2]; 50 μM,neuron protection
